Laboratory results published in patent publication US6180629A, “[4,5]-Fused-1,3-disubstituted-1,2-diazine-6-one derivatives with nitrogen containing substitutents in position one for the treatment of neoplasia” (Cell Pathways, Inc., priority 1998, dated 2001).

Legend:
[1] = system: human colon carcinoma cell line, SW-480; assay: Growth inhibition of SW-480 human colon carcinoma cells, Sulforhodamine B (SRB) protein binding assay, six days; assay type: cell-based; conditions: SW480, 144 h
Procedure: The compounds of Examples 1-3 were assayed for their growth inhibitory activity on the human colon carcinoma cell line, SW-480 obtained from ATCC (Rockville, Md.), to ascertain the degree of growth inhibition. Growth inhibition of this cell line is indicative of a benefit on precancerous lesions and neoplasms. The cell line and growth assay employed for such experiments are well characterized, and are used to evaluate the anti-neoplastic properties of NSAIDs. The assay is used by the United States National Cancer Institute in its screening program for new anti-cancer drugs.
Drug stock solutions were made in 100% DMSO and were then diluted with RPMI media for cell culture testing. All drug solutions were prepared fresh on the day of testing. The cultured cells were obtained at passage #99 and grown in RPMI media supplemented with 5% fetal calf serum, and 2 mM glutamine, 100 u/ml penicillin, 100 U/ml streptomycin, and 0.25 μg/ml amphotericin. The cultures were maintained in a humidified atmosphere of 95% air and 5% CO2 at 37° C. The cultures were passaged at preconfluent densities using a solution of 0.05% trypsin and 0.53 mM EDTA. Cells were plated at 1000 cells/well for 96 well flat-bottom microtiter plates.
Tumor cell growth inhibition was assessed using the Sulforhodamine B (SRB) protein binding assay. In this assay, tumor cells were plated in 96-well plates and treated with drug-containing media for six days (continuous exposure). For each plate, 6 wells were designated as no treatment controls, six wells as vehicle (0.1% DMSO) controls, and the remaining wells for drug dilutions with three wells per drug concentration. At the end of the exposure period, the cells were fixed and stained with sulforhodamine B, a protein binding dye. The dye was then solubilized, and the optical density of the resulting solution was determined on a 96-well plate reader. The mean dye intensity of the treated wells was then divided by the mean dye intensity in the control wells (6 wells of each) to determine the effect of the drug on the cells. Dye intensity is proportional to the number of cells or amount of protein per well. The resultant "percent inhibition" value then represents the degree of growth inhibition caused by the drug.
An IC50 value was also determined for the compound of Example 3. This value is equivalent to the concentration of drug needed to inhibit tumor cell growth by 50% relative to a vehicle control. IC50 value was obtained graphically by connecting the mean values for each drug concentration tested. Each experiment included at least three wells per drug concentration. Concentration was plotted on a log scale on the X-axis.

[2] = system: SW-480 colon adenocarcinoma cells; assay: Apoptosis (DNA fragmentation) in SW-480 colon adenocarcinoma cells, Cell Death Detection ELISA; assay type: cell-based, human; conditions: for fold induction at 100 µM: SW480, read-out: DNA Fragmentation FS (Fold stimulation, FS=ODmax/ODveh); for fold induction at 100 µM / EC50: SW-480, 48 hrs; for Apoptosis Level (Mean OD Value ± SD): vehicle 0.175 ± 0.02
Procedure: Apoptosis was measured using an assay of cell death based on a characteristic feature of apoptotic cells (i.e., fragmented DNA). Briefly, SW-480 colon adenocarcinoma cells were plated in 96-well microtitre plates ("MTP") at a density of 10K cells/well in 180 μl and were incubated for 24 hrs. Cells were then treated with 20 μl aliquots of appropriately diluted compound, and allowed to incubate for an additional 48 hrs.
After the incubation, samples were prepared according to the following steps. The MTP was centrifuged (15 min., 1000 rpm) and the supernatant was carefully removed by fast inversion of the MTP. The cell pellets in each well were resuspended in 200 μl lysis buffer and incubated for 45 min. at room temperature to lyse the cells. The lysates were then centrifuged (15 min., 1000 rpm) and 20 μl aliquots of the supernatant (=cytoplasmicfraction) were transferred into the streptavidin coated MTP for analysis. Care was taken not to shake the lysed pellets in the MTP (=cell nucleii containing high molecular weight, unfragmented DNA). Samples were analyzed immediately, because storage at 4° C. or -20° C. reduces the ELISA-signals.
Samples were then processed according to a DNA fragmentation assay protocol, and dose-response curves were generated based on optical density readings. Quantification of DNA was done by a commercially available photometric enzyme-immunoassay manufactured by Mannheim-Boehringer under the name "Cell Death Detection ELISA^plus ". The assay is based on a quantitative sandwich-enzyme-immunoassay-principle using mouse monoclonal antibodies directed against DNA and histones, respectively. This allows the specific determination of mono and oligonucleosomes in the cytoplasmatic fraction of cell lysates. In brief, the assay procedure is as follows. The sample (cell-lysate, serum, culture-supernatant etc.) is placed into a streptavidin-coated MTP. Subsequently, a mixture of anti-histone-biotin and anti-DNA-POD is followed by incubation for 2 hours. During the incubation period, the anti-histone antibody binds to the histone-component of the nucleosomes and simultaneously fixes the immunocomplex to the streptavidin-coated MTP via its biotinylation. Additionally, the anti-DNA-POD antibody reacts with the DNA component of the nucleosomes. After removal of unbound antibodies by a washing step, the amount of nucleosomes is quantified by the POD retained in the immunocomplex. POD is determined photometrically with ABTS® (2,2'-Azino-di[3-ethylbenzthiazolin-sulfonat]) as substrate.
Fold stimulation (FS=ODmax/ODveh), an indicator of apoptotic response, was determined for each compound tested.

colonic polyps = conditions: patients; cited from earlier work
[3] = chronic administration, high cancer-risk patients; cited from earlier work

**Q.** What does the source list for `O=C(Cn1nc(-c2ccc(F)cc2)c2ccccc2c1=O)NCc1ccccc1` [Example 2]?
**A.** inhibition at 100 µM ([1]; six days continuous exposure): -7.8%; fold induction at 100 µM ([2]; Homo sapiens): 1.2

**Q.** What does the source list for `O=C(Cn1nc(-c2ccc(Cl)cc2)c2ccccc2c1=O)NCc1ccccc1` [Example 3, 2-[4-(4-Chlorophenyl)-1-Oxo-Phthalazin-2-yl]-N-Benzylethanamide]?
**A.** inhibition at 100 µM ([1]; six days continuous exposure): 86.1%; activity at 0.001 µM ([1]; Dose 0.001 μM, read-out: Growth Inhibition (% Vehicle ± SD)): 105 ± 20%; activity at 0.01 µM ([1]; Dose 0.01 μM, read-out: Growth Inhibition (% Vehicle ± SD)): 99 ± 11.9%; activity at 0.1 µM ([1]; Dose 0.1 μM, read-out: Growth Inhibition (% Vehicle ± SD)): 91 ± 5%; activity at 1 µM ([1]; Dose 1.0 μM, read-out: Growth Inhibition (% Vehicle ± SD)): 94 ± 17.9%; activity at 10 µM ([1]; Dose 10.0 μM, read-out: Growth Inhibition (% Vehicle ± SD)): 34 ± 17.8%; activity at 100 µM ([1]; Dose 100.0 μM, read-out: Growth Inhibition (% Vehicle ± SD)): 6 ± 1.6%; IC50 ([1]; six days continuous exposure, read-out: IC50 (tumor cell growth, relative to vehicle control)): 5.18 µM; Apoptosis Level (Mean OD Value ± SD) ([2]; Dose 0.001 μM): 0.156 ± 0.02 OD; Apoptosis Level (Mean OD Value ± SD) ([2]; Dose 0.01 μM): 0.165 ± 0.03 OD; Apoptosis Level (Mean OD Value ± SD) ([2]; Dose 0.1 μM): 0.161 ± 0.02 OD; Apoptosis Level (Mean OD Value ± SD) ([2]; Dose 1.0 μM): 0.208 ± 0.01 OD; Apoptosis Level (Mean OD Value ± SD) ([2]; Dose 10.0 μM): 1.789 ± 0.32 OD; Apoptosis Level (Mean OD Value ± SD) ([2]; Dose 100.0 μM): 2.763 ± 0.29 OD; EC50 ([2]; Homo sapiens, SW480, 48 h): 7.2 µM; fold induction at 100 µM ([2]; Homo sapiens): 6.1; EC50 [2]: 7.19 µM

**Q.** For `O=C(Cn1nc(-c2ccccc2)c2ccccc2c1=O)NCc1ccccc1` [Example 1, 2-(1-Oxo-4-Phenylphthalazin-2-yl)-N-Benzylethanamide], which inhibition at 100 µM ([1]; six days continuous exposure) is on record?
**A.** The inhibition at 100 µM was 90%.

**Q.** What about the fold induction at 100 µM ([2]; Homo sapiens) of the same molecule?
**A.** Its fold induction at 100 µM is 7.3.

**Q.** With `CC1=C(CC(=O)O)c2cc(F)ccc2/C1=C\c1ccc([S+](C)[O-])cc1` (centres unmarked) [sulindac] as the molecule, how does the “effect on colonic polyps” value (colonic polyps) read?
**A.** Its value is “Polyps virtually disappear”.

**Q.** And the gastric side effects [3]?
**A.** Its gastric side effects is “causes gastric side effects in many such patients”.
